According to the supplement of paper PMC5580409:

These compounds were tested on Plasmodium falciparum 3D7 (assay: pEC50, asexual blood-stage growth inhibition). Conditions: 72 h.
Protocol: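 Held-out test set measured in the Guy lab in 2014 with the same procedure as the primary St. Jude screen. P. falciparum 3D7 blood-stage culture (2% hematocrit, 1% parasitemia) was treated with compound for 72 h at 37 °C, and growth was read by SYBR Green I fluorescence. EC50 came from a four-parameter Hill fit over a 10-point dilution series […].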

Structure (SMILES)	pEC50
CCN(CC)c1nc(Nc2ccc(O)cc2)nc(Nc2cc(C)ccc2C)n1	< 4.82
CCOc1ccc(-c2nc3cc(C)ccc3[nH]2)cc1	5.12
CC(C)(C)C(=O)N1CCN(C(c2ccccc2)c2ccccc2)CC1	< 4.82
COc1ccc(N2CCN(C(=O)c3ccc(C)cc3)CC2)c([N+](=O)[O-])c1	5.23
CN1CCN(Cc2c(O)ccc3c(=O)c(-c4cccc5ccccc45)c(C(F)(F)F)oc23)CC1	< 4.82
Oc1ccc(Br)cc1CN1CCN(Cc2cccc3ccccc23)CC1	6.3
COc1ccc(OC)c(NCC(O)Cn2c3ccc(Cl)cc3c3cc(Cl)ccc32)c1 (stereo not drawn)	< 4.82
COc1cc(C2CC(=O)NC3=C2C(=O)CC(c2ccc(C)cc2)C3)ccc1O (stereo not drawn)	< 4.82
C=CCn1nnnc1NCc1cc(Cl)c(OC)c(OC)c1	< 4.82
CN(C)Cc1c(O)ccc2c(=O)c(Oc3ccc(C(C)(C)C)cc3)c(C(F)(F)F)oc12	5.24
CN(C)c1ccc(NC(=O)/C=C/c2ccccc2Cl)cc1	4.99
CCOc1cc(C2C(C(=O)OCC(C)C)=C(C)NC3=C2C(=O)CC(c2ccc(Cl)cc2)C3)ccc1O (stereo not drawn)	< 4.82
Cn1nccc1C(=O)Nc1cc(Oc2ccc(Cl)cc2)cc([N+](=O)[O-])c1	< 4.82
COc1ccccc1-c1c(C(F)(F)F)oc2c(CN3CCOCC3)c(O)ccc2c1=O	< 4.82
COc1c(O)ccc(/C=N/NC(=O)C2CC2(c2ccccc2)c2ccccc2)c1[N+](=O)[O-] (stereo not drawn)	< 4.82
CCN(CC)CC(O)COc1ccc(CNC2CCCCC2)cc1OC (stereo not drawn)	< 4.82
Cc1ccccc1Cn1c(=N)n(CC(O)c2ccc(Cl)c(Cl)c2)c2ccccc21 (stereo not drawn)	6.39
COc1ccc(CN2CCCn3c4c(c5cc(C)ccc53)CCCC42)cc1 (stereo not drawn)	< 4.82
Cc1cccc(CN2CCCn3c4c(c5cc(C)ccc53)CCCC42)c1 (stereo not drawn)	5.33
CCn1c(CSCc2ccc(F)cc2)nnc1SCC(=O)Nc1cc(C(F)(F)F)ccc1Cl	< 4.82
Nc1cccc(-c2nc3cc(Oc4ccc5[nH]c(-c6cccc(N)c6)nc5c4)ccc3[nH]2)c1	< 4.82
Cc1cccc(C2(c3cccc(C)c3)CC2C(=O)Nc2cc([N+](=O)[O-])ccc2O)c1 (stereo not drawn)	5.27
CCOc1cc(C2C(C(=O)OCCOc3ccccc3)=C(C)NC3=C2C(=O)CC(c2ccc(Cl)cc2)C3)ccc1O (stereo not drawn)	< 4.82
O=C(NC1C2CC3CC(C2)CC1C3)c1ccc2c(=O)n3c(nc2c1)CCCCC3 (stereo not drawn)	< 4.82
Cc1ccc(C)c(OCC(O)CNC2CCCC2)c1 (stereo not drawn)	< 4.82
COc1ccc(C2C(C(=O)OCCOc3ccccc3)=C(C)NC3=C2C(=O)CC(c2ccc(Cl)cc2)C3)cc1 (stereo not drawn)	< 4.82
CCOc1cc(C2C(C(=O)OCCOC)=C(C)NC3=C2C(=O)CC(c2ccc(Cl)cc2)C3)ccc1O (stereo not drawn)	5.52

Structure (SMILES)	pEC50
Cc1ccc(C(=O)Cn2c(=N)n(CCN3CCCCC3)c3ccccc32)cc1	< 4.82
COc1cccc(CNCC(O)c2ccccc2)c1 (stereo not drawn)	< 4.82
OC(CNC1CC1)Cn1c2ccccc2c2ccccc21 (stereo not drawn)	< 4.82
CC(C)(CO)NCC(O)Cn1c2ccc(Cl)cc2c2cc(Cl)ccc21 (stereo not drawn)	5.29
CC(C)N1CCN(Cc2cc(Br)ccc2O)CC1	< 4.82
CCN(CC)CCN1C(=O)c2ccccc2NC1c1ccc(Br)cc1 (stereo not drawn)	5.74
CC(=O)Nc1ccc(-c2nc3cc(-c4nc5cc(NC(C)=O)ccc5[nH]4)ccc3[nH]2)cc1	6.5
Oc1ccc(Br)cc1CN1CCN(CC2CC3C=CC2C3)CC1 (stereo not drawn)	5.39
N=c1n(CCN2CCCCC2)c2ccccc2n1CC(O)COc1ccc(Cl)cc1Cl (stereo not drawn)	5.53
OC(CNCc1ccccc1)Cn1c2ccc(Cl)cc2c2cc(Cl)ccc21 (stereo not drawn)	5.73
CC(C)(C)NC(=O)c1cn(C2CCCCC2)cc(C(=O)N2CCC(c3ccccc3)CC2)c1=O	< 4.82
O=C(Cc1ccccc1)Nc1ccc(-c2nc3cc(-c4nc5cc(NC(=O)Cc6ccccc6)ccc5[nH]4)ccc3[nH]2)cc1	< 4.82
CC(C)c1ccc(NC(=O)/C=C/c2ccccc2)cc1	5.16
OC(CNc1cccc2ccccc12)Cn1c2ccc(Cl)cc2c2cc(Cl)ccc21 (stereo not drawn)	5.36
Cc1ccc2c(c1)c1c3n2CCCN(Cc2ccccc2F)C3CCC1 (stereo not drawn)	5.01
COc1ccc(Oc2c(C(F)(F)F)oc3c(CN4CCCC(C)C4)c(O)ccc3c2=O)cc1 (stereo not drawn)	< 4.82
O=C(NCC1CCCCC1)c1cn(C2CC2)cc(C(=O)NC2CCN(Cc3ccccc3)C2)c1=O (stereo not drawn)	< 4.82
COc1ccc(CN2CCCn3c4c(c5cc(C)ccc53)CCCC42)c(OC)c1 (stereo not drawn)	< 4.82
N=c1n(CCN2CCOCC2)c2ccccc2n1CC(O)COc1ccc(Cl)cc1 (stereo not drawn)	< 4.82
COc1cc(OC)c([N+](=O)[O-])cc1/C=N/NC(=O)C1CC1(c1ccccc1)c1ccccc1 (stereo not drawn)	< 4.82
OC(CNCC1CCCO1)Cn1c2ccc(Br)cc2c2cc(Br)ccc21 (stereo not drawn)	5.76
Cc1cccc(Oc2c(C(F)(F)F)oc3c(CN4CCCC4)c(O)ccc3c2=O)c1	< 4.82
OC(CNc1ccc(Cl)cc1)Cn1c2ccc(Cl)cc2c2cc(Cl)ccc21 (stereo not drawn)	< 4.82
Cc1ccccc1OCC(O)CNC1CCCCC1 (stereo not drawn)	< 4.82
COc1ccc(CCNC(=O)c2cn(C3CCCCC3)cc(C(=O)NC(C)(C)C)c2=O)cc1	6.95
Cc1ccc2c(c1)c1c3n2CCCN=C3CCC1	< 4.82
